Measured values taken from PMC12470154, “In Vitro Evaluation of Antimicrobial Amyloidogenic Peptides for the Treatment of Early and Mature Bacterial Biofilms” (International Journal of Molecular Sciences, 2025).

How the values were obtained:
[1] = test system: P. aeruginosa (2943 strain); experiment: Antibacterial activity in liquid medium (optical density); type: cell-based, Pseudomonas aeruginosa; design: key to change of optical density vs negative control: ↓: Decrease in the parameter (optical density) compared to the negative control; −: No decrease in the parameter; ↑: Reverse effect (increase in the optical density compared to the control); settings: 24 h, 37 °C; for change of optical density vs negative control: OD 595 nm
Procedure: (§1) To evaluate the antibacterial activity of peptides in liquid culture, a stationary-phase culture of the tested bacterial strain was diluted 100-fold in fresh medium containing peptides or gentamicin (positive control) at the specified concentrations. A total volume of 200 µL was added to each well of a 96-well round-bottom microtiter plate. After 24 h of incubation at 37 °C, the samples were transferred to a flat-bottom 96-well microtiter plate, and the optical density was measured at 595 nm. Separately, the optical density of medium containing peptides but no bacteria was measured. These values were used as baseline (zero) readings for subsequent data analysis.

E. coli (MG1655 strain) [2] = experiment: Mature biofilms, crystal violet staining; type: cell-based, Escherichia coli; design: key: ↓: Decrease in the parameter (optical density) compared to the negative control; −: No decrease in the optical density; ↑: Reverse effect (increase in the optical density compared to the control); settings: mature biofilm: peptide added after 24 h, further 24 h, 0.01-10 mg/mL
Procedure: (§2) After 24 h of incubation, the medium was removed. To assess the total biofilm biomass, the wells were rinsed with sterile PBS solution and stained with 0.1% crystal violet. The dye bound to the surface was then removed using 95% ethanol. To assess the presence of metabolically active cells, 0.3% MTT (PanEco Ltd., Moscow, Russia) solution was added to each well, and the plates were incubated at 37 °C for 2 h. After incubation, the MTT solution was removed, 150 µL of DMSO (Chimmed, Moscow, Russia) and 25 µL of glycine buffer were added to each well, and the plates were left at room temperature for 15 min. The resulting solutions were transferred to a flat-bottom 96-well plate, and optical density was measured at 595 nm.
(§3) A stationary-phase culture of the tested strain was diluted 100-fold in fresh medium (200 µL per well) and added to the wells of a 96-well round-bottom plate. […] After another 24 h, the medium was removed and the wells were rinsed with sterile PBS to eliminate planktonic cells. The procedures for assessing total biofilm biomass and cell metabolic activity using crystal violet and MTT assays were performed in the same manner as described above for early-stage biofilm experiments.

E. coli (MG1655 strain) [3] = experiment: Mature biofilms, MTT assay; type: cell-based, Escherichia coli; design: key: ↓: Decrease in the parameter (optical density) compared to the negative control; −: No decrease in the optical density; ↑: Reverse effect (increase in the optical density compared to the control); settings: mature biofilm: peptide added after 24 h, further 24 h; 0.01-10 mg/mL
Procedure: as §2, §3

E. coli (MG1655 strain) [4] = experiment: Early biofilm formation, MTT assay; type: cell-based, Escherichia coli; design: key: ↓: Decrease in the parameter (optical density) compared to the negative control; −: No decrease in the parameter; ↑: Reverse effect (increase in the optical density compared to the control); settings: 24 h, 0.3% MTT 2 h 37 °C, OD 595 nm
Procedure: as §2

S. aureus (129B strain) [5] = experiment: Mature biofilms, crystal violet staining; type: cell-based, Staphylococcus aureus; design: key: ↓: Decrease in the parameter (optical density) compared to the negative control; −: No decrease in the parameter; ↑: Reverse effect (increase in the optical density compared to the control); settings: mature biofilm: peptide added after 24 h, further 24 h; 0.01-10 mg/mL
Procedure: as §2, §3

S. aureus (129B strain) [6] = experiment: Antibacterial activity in liquid medium (optical density); type: cell-based, Staphylococcus aureus; design: key to change of optical density vs negative control: ↓: Decrease in the parameter (optical density) compared to the negative control; −: No decrease in the parameter; ↑: Reverse effect (increase in the optical density compared to the control); settings: 24 h, 37 °C; for change of optical density vs negative control: OD 595 nm
Procedure: as §1

MRSA (SA 180-F strain) [7] = experiment: Mature biofilms, MTT assay; type: cell-based, methicillin-resistant Staphylococcus aureus; settings: mature biofilm
Procedure: as §2, §3

MRSA (SA 180-F strain) [8] = experiment: Early biofilm formation, crystal violet staining; type: cell-based, methicillin-resistant Staphylococcus aureus; design: key: ↓: Decrease in the parameter (optical density) compared to the negative control; −: No decrease in the parameter; ↑: Reverse effect (increase in the optical density compared to the control); settings: peptide present from inoculation, 24 h, OD 595 nm
Procedure: as §2

[9] = test system: P. aeruginosa (2943 strain); experiment: Mature biofilms, MTT assay; type: cell-based, Pseudomonas aeruginosa; settings: mature biofilm
Procedure: as §2, §3

[10] = test system: P. aeruginosa (2943 strain); experiment: Antibacterial activity on 0.7% agar (inhibition zone); type: cell-based, Pseudomonas aeruginosa; design: key: +: The presence of a bacterial growth inhibition zone; −: The absence of a bacterial growth inhibition zone; settings: drop on 0.7% agar, 24 h
Procedure: (§4) Drops of the samples were applied to the surface of solidified 0.7% agar at the concentrations indicated in Table 2 and Supplementary S2 (Figures S1–S4). After 24 h of incubation, the results were evaluated based on the presence or absence (+/−) of inhibition zones.
(§5) Once the agar solidified, drops of peptide samples at the concentrations 1, 0.1, 0.01, and 0.001 mg/mL were applied to the agar surface.

S. aureus (129B strain) [11] = experiment: Mature biofilms, MTT assay; type: cell-based, Staphylococcus aureus; design: key: ↓: Decrease in the parameter (optical density) compared to the negative control; −: No decrease in the optical density; ↑: Reverse effect (increase in the optical density compared to the control); settings: mature biofilm: peptide added after 24 h, further 24 h; 0.01-10 mg/mL
Procedure: as §2, §3

MRSA (SA 180-F strain) [12] = experiment: Antibacterial activity on 0.7% agar (inhibition zone); type: cell-based, methicillin-resistant Staphylococcus aureus; design: key: +: The presence of a bacterial growth inhibition zone; −: The absence of a bacterial growth inhibition zone; settings: drop on 0.7% agar, 24 h
Procedure: as §4, §5

Sequence | change of optical density vs negative control [1] | change of optical density after crystal violet staining vs negative control (E. coli (MG1655 strain) [2]) | change of optical density after MTT assay vs negative control (E. coli (MG1655 strain) [3]) | change of optical density after MTT assay vs negative control (E. coli (MG1655 strain) [4]) | change of optical density after crystal violet staining vs negative control (S. aureus (129B strain) [5]) | concentration given with ↓ (decrease in optical density) (S. aureus (129B strain) [6]) [mg/mL] | change of optical density vs negative control (S. aureus (129B strain) [6]) | concentration given with ↓ (MTT) (MRSA (SA 180-F strain) [7]) [mg/mL] | change of optical density after crystal violet staining vs negative control (MRSA (SA 180-F strain) [8]) | concentration given with ↓ (decrease in optical density) [1] [mg/mL] | residual viability of cells (MTT) [9] | bacterial growth inhibition zone ([10]; 0.001 mg/mL) | bacterial growth inhibition zone ([10]; 0.01 mg/mL) | bacterial growth inhibition zone ([10]; 0.1 mg/mL) | bacterial growth inhibition zone ([10]; 1 mg/mL) | change of optical density after MTT assay vs negative control (S. aureus (129B strain) [11]) | bacterial growth inhibition zone (MRSA (SA 180-F strain) [12]; 0.001 mg/mL) | bacterial growth inhibition zone (MRSA (SA 180-F strain) [12]; 0.01 mg/mL) | bacterial growth inhibition zone (MRSA (SA 180-F strain) [12]; 0.1 mg/mL) | bacterial growth inhibition zone (MRSA (SA 180-F strain) [12]; 1 mg/mL) | other results
ITDFGIFIGLGGGGSRQIKIWFQNRRMKWKK [I31K^P] | ↑ | − | − | ↑ | ↑ | 0.1 | ↓ (0.1 mg/mL) | 0.01 |  |  |  |  |  |  |  |  |  |  |  |  | metabolic activity of cells within mature biofilms (MTT) (MRSA (SA 180-F strain) [7]; 0.01, 0.1, 1, and 10 mg/mL): decreased the metabolic activity
RKKRRQRRRGGGGITDFGIFIGL [R23L^P] | ↓ (10 mg/mL) |  | − | ↑ | ↑ | 1 | ↓ (1 mg/mL) | 0.01 | ↓ (10 mg/mL) | 10 | did not inhibit | − | − | − | + | − | − | − | − | + | 
RKKRRQRRRGGGGVTDFGVFVEI [R23I^T, TAT cell-penetrating peptide linked via glycine linker to amyloidogenic fragment of S1 ribosomal protein of T. thermophilus] | ↓ (10 mg/mL) | − |  | ↑ |  |  | ↑ |  |  | 10 | did not inhibit | − | − | − | + | − | − | − | − | + | 
RKKRRQRRRGGGGVVVHINGGKFGGGGSRQIKIWFQNRRMKWKK [R44K^S] | ↓ (10 mg/mL) |  |  |  | ↑ | 10 | ↓ (10 mg/mL) | 0.01 | ↓ (1 mg/mL) | 10 | did not inhibit | − | − | − | + | − | − | − | − | + | change of optical density after crystal violet staining vs negative control (MRSA (SA 180-F strain) [8]; listed as R44K^P): ↓ (10 mg/mL); bacterial growth inhibition zone ([10]; 1 mg/mL, listed as R44K^P): −; change of optical density after crystal violet staining vs negative control (E. coli (MG1655 strain) [2]; listed as R44K^P): −; change of optical density after MTT assay vs negative control (E. coli (MG1655 strain) [4]; listed as R44K^P): ↑; bacterial growth inhibition zone (MRSA (SA 180-F strain) [12]; 1 mg/mL, listed as R44K^P): −; change of optical density vs negative control (S. aureus (129B strain) [6]; listed as R44K^P): ↑
VTDFGVFVEIGGGGSRQIKIWFQNRRMKWKK [V31K^T, amyloidogenic fragment of S1 of T. thermophilus linked via glycine-rich linker to antennapedia peptide] | − |  | − |  | ↑ |  | − | 0.01 | ↑ | 10 | did not inhibit | − | − | − | − | − | − | − | − | − | change of optical density after crystal violet staining vs negative control (MRSA (SA 180-F strain) [8]; listed as V31K^S): ↓ (10 mg/mL); change of optical density vs negative control ([1]; listed as V31K^S): ↓ (10 mg/mL); change of optical density after crystal violet staining vs negative control (E. coli (MG1655 strain) [2]; listed as V31K^S): −; change of optical density vs negative control (S. aureus (129B strain) [6]; listed as V31K^S): ↑
